The values that follow come from BindingDB's records for patent US9862711 (Novartis, 2018).

For the test, the target named is Phosphatidylinositol 4-kinase beta (Homo sapiens, UniProt Q9UBF8). Kind of test: Kinase Glo Luminescent Kinase Assay. The source says: PI 3-Kinase Alpha (A), Pb 3-Kinase Beta (B), Vps34 (C), PI 4-Kinase Beta (D):The luminescence-based ATP detection reagent KinaseGlo was obtained from Promega, (Cat. No. V6714, Lot No. 236161) through Catalys, Wallisellen, Switzerland. L-alpha-phosphatidylinositol (PI, liver, bovine) was obtained from Avanti Polar Lipid (Cat. No. 840042C, Lot#LPI-274), Phosphatidylinositol-4,5-bisphosphate (PIP(4,5)2) was also obtained from Avanti Polar Lipid (Cat. No. 840046X). L-α-Phosphatidylserine (PS) was obtained from Avanti Polar Lipid (Cat. No. 840032C), n-Octylglucoside from Avanti Polar Lipid (Cat. No. 10634425001). Luminescence is a well established readout to determine ATP concentrations and can thus be used to follow the activity of many kinases regardless of their substrate. The Kinase Glo Luminescent Kinase Assay (Promega, Madison/WI, USA) is a homogeneous HTS method of measuring kinase activity by quantifying the amount of ATP remaining in solution following a kinase reaction.
Background: Kinase-Glo reads ATP consumption through a luciferase reaction.

Molecules are shown by their SMILES.

Sequence of Phosphatidylinositol 4-kinase beta (Q9UBF8 whole entry): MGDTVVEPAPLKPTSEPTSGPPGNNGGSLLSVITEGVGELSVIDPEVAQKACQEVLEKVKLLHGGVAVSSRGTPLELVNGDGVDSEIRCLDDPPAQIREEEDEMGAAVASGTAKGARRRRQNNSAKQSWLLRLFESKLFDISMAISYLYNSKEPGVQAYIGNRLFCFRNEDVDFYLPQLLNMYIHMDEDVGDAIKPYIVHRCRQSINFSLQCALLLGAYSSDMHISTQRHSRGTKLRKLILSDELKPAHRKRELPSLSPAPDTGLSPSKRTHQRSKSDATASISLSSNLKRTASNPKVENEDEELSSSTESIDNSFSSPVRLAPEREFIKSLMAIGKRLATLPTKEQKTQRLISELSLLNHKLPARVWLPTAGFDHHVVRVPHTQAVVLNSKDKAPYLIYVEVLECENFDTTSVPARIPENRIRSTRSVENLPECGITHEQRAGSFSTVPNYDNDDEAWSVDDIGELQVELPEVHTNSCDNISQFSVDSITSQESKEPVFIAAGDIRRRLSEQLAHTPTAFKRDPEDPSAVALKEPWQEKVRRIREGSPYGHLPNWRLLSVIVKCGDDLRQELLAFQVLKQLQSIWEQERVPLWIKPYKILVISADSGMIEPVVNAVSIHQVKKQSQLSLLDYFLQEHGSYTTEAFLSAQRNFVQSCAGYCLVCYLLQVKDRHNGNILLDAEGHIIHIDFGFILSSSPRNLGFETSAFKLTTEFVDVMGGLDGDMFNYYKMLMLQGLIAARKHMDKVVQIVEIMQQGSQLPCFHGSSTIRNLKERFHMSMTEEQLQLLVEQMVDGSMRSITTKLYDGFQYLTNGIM

Broadly, the IC50 is the concentration at which inhibition is half-maximal. High values mean a need for much substance, low ones inhibition by little substance. `Cc1ccc(S(=O)(=O)NC[C@H]2C[C@@H](O)C2)cc1-c1cncc(-c2cn(C)nc2C)n1` [US9862711, Example 7] showed a 50% inhibitory concentration (IC50) greater than 10 µM.
`Cc1ccc(S(=O)(=O)NC2CC3(CC(O)C3)C2)cc1-c1cncc(-c2cn(C)nc2C)n1` (centres undefined) [US9862711, Example 6] registered an IC50 greater than 10 µM.
Take `Cc1ccc(S(=O)(=O)N[C@H]2CC[C@H](O)CC2)cc1-c1cncc(-c2csc(CN3CCOCC3)c2)n1` [US9862711, Example 12]: the IC50 was greater than 9.1 µM.
In turn, `Cc1cc(-c2cncc(-c3cc(S(=O)(=O)NC[C@H]4C[C@@H](O)C4)ccc3C)n2)n(C)n1` [US9862711, Example 13] returned an IC50 greater than 9.55 µM.
